Data as given in US5434292A, “Phenylalkanoic acid derivatives, process for producing the same and process for separating optical isomers thereof” (Hisamitsu Pharmaceutical Co., Inc., priority 1994, dated 1995).
Read-outs that look alike come from different tables or passages of the source.

Columns and labels:
Format in all cases: in vivo, Wistar-strain male rats
[1] = system: Carrageenin-induced paw edema; test: Carrageenin-induced paw edema experiment using rats; settings: Rattus norvegicus, 3 h; for inhibition in vivo at 0.5 mg/kg / inhibition in vivo at 0.2 mg/kg / ED50: oral; for inhibition in vivo at 0.5 mg/kg / inhibition in vivo at 0.2 mg/kg: three hours after induction, vs control; for ED50: edema inhibition three hours after induction
Experimental: Pharmacological Experiment 1 (Carrageenin-induced paw edema experiment using rats)
There were used groups each consisting of seven Wistar-strain male rats each weighing about 150 g as test animals (subjects). One hour later than said administration, 0.1 ml of 1%λ-carrageenin was hypodermically injected to the paw of right hind leg of each of the test animals to induce the reaction. Thereafter, each test animal so injected was measured for its paw volume with the lapse of time.
The experimental results were indicated in terms of edema inhibition rates and effective doses (ED50) found by comparing the edema rate of each test rat with that of each rat of the control group (to which no test compounds were orally administered) three hours after having induced the reaction.

[2] = system: threshold of pain of the paws; test: Randall-Selitto method using rats (yeast-induced inflammatory pain); settings: oral; for Inhibition rate: area under the curve of pain threshold vs control; for ED50: Rattus norvegicus, analgesic effect
Experimental: Pharmacological Experiment 2 (Randall-Selitto method using rats as subjects)
There were used groups each consisting of seven Wistar-strain male rats each weighing about 140 g. The rats were hypodermically injected with 0.1 ml of 20% yeast suspension at the paw of their right hind leg to induce inflammatory edema, and the threshold of pain of the paws was measured with the lapse of time in accordance with the Randall-Selitto method. Three hours after the reaction had been induced, the dose of the test compounds was orally administered to each rat as shown in the following Table 5.
In Table 5, the results were expressed in terms of inhibition rates and effective amounts (ED50) for the tested groups with respect to those of the control group (to which the compound was not orally administered) after the area under the curve had been measured subsequently to the administration.

Gastric mucous membrane = Gastric mucous membrane trouble experiment using rats; settings: oral, 3.0 mg/kg; fasted 18 hours; groups of eight rats
Experimental: (§1) Pharmacological Experiment 3 (Gastric mucous membrane trouble experiment using rats)
(§2) There were used groups each consisting of eight Wistar-strain male rats each weighing about 160 g as test animals (subjects). The test compounds were orally administered to the test animals in the predetermined doses, respectively, as indicated in the following Table 6 after their fasting for 18 hours. Thirty five hours later than said administration, the rats so administered were dissected to remove therefrom the stomachs each of which was then fixed, cut along the greater curvature thereof and visually observed to find whether ulcers were formed therein. Further, 50% gastric ulcer-inducing doses (UD50) were determined.

[3] = as above; settings: rat, in vivo
Experimental: as §1, §2

adjuvant arthritis = test: Adjuvant arthritis experiment using rats; settings: oral; for ED50: Rattus norvegicus, 168 h, once a day for 7 days
Experimental: Pharmacological Experiment 4 (Adjuvant arthritis experiment using rats)
0.6 mg/0.1 ml of Mycobacterium butyricum suspended in liquid paraffin were subcutaneously administered to the root of the tall of each of Wistar-strain male rats each weighing about 200 g (for the compound of Example 2 and comparative compound 1) or 240 g (for the compound of Example 24 and comparative compounds 4 and 5). […] The test compounds were orally administered once a day for 7 days to the selected rats in the predetermined doses, respectively, as indicated in the following Table 7. The inhibitory effect on the adjuvant arthritis was investigated referring, as a guide to the investigation, to the inhibition effect on swelling of the hind paws of each of the tested rats. In each of the tested rats, the inhibition rate was calculated by comparing the swelling volume ratio of the tested rat determined by the following formula with that of each rat of the control group (to which no test compounds were orally administered).
Swelling volume ratio = {(paw volume measured
26 days (*a) after the subcutaneous administration) -
(original or normal paw volume)}/{(paw volume
measured 19 days (*b) after the subcutaneous
administration) - (original or normal paw volume)} × 100
*a: 24 days later, for the compound of Example 24 and comparative
*b: 17 days later, for the compound of Example 24 and comparative

[4] = read-out: Inhibition rate (edema inhibition rate)
[5] = 1.0 mg/kg once a day for 7 days

| Structure (SMILES) | inhibition in vivo at 0.5 mg/kg [1, 4] [%] | Inhibition rate ([2]; 1.0 mg/kg) [%] | inhibition in vivo at 0.2 mg/kg [1, 4] [%] | further results |
| --- | --- | --- | --- | --- |
| CC(C(=O)O)c1ccc(CC2CCCCC2=O)c(F)c1 (stereo not drawn) [Example 10] | 50.2 | – | – | – |
| CC(C(=O)O)c1ccc(C[C@H]2CCCC[C@@H]2O)c(Cl)c1 (stereo partly drawn) [Example 28, 2-[3-chloro-4-(trans-(1R, 2S)-2-hydroxycyclohexane-1-yl-methyl)phenyl]propionic acid] | 54.8 | 80.9 | 38.3 | Inhibition rate ([2]; 0.3 mg/kg): 62.5% |
| CC(C(=O)O)c1ccc(CC2CCCC2=O)c(F)c1 (stereo not drawn) [Example 6] | 52.2 | – | – | Ulcer formation (incidence) (Gastric mucous membrane): 1/8 |
| CC(C(=O)O)c1ccc(C[C@H]2CCCC[C@H]2O)c(F)c1 (relative stereo) [Example 32] | 37.9 | – | – | – |
| CC(C(=O)O)c1ccc(CC2CCCC2=O)c(Cl)c1 (stereo not drawn) [Example 3, 2-[3-chloro-4-(2-oxocyclopentane-1-ylmethyl)phenyl]propionic acid] | 48.5 | 69.3 | 20.2 | Inhibition rate ([2]; 0.3 mg/kg): 44.7% |
| CC(C(=O)O)c1ccc(CC2CCCC2)c(Cl)c1 (stereo not drawn) [compound 3, 2(3-chloro-4-cyclopentylmethylphenyl)propionic acid, reference compound] | 10.2 | 18.4 | – | – |
| CC(C(=O)O)c1ccc(C[C@H]2CCC[C@@H]2O)c(Cl)c1 (stereo partly drawn) [Example 44, 2-[3-chloro-4-(trans-(1R, 2S)-2-hydroxycyclopentane-1-ylmethyl)phenyl]propionic acid] | 65.5 | – | 42.2 | – |
| CC(C(=O)O)c1ccc(CC2CCCCC2=O)c(Cl)c1 (stereo not drawn) [Example 2, 2-[3-chloro-4-(2-oxocyclohexane-1-ylmethyl)phenyl]propionic acid] | 49.5 | 75.1 | 21.8 | ED50 [2]: 0.3 mg/kg; Inhibition rate ([2]; 0.3 mg/kg): 54.3%; ED50 [1]: 0.6 mg/kg; Ulcer formation (incidence) (Gastric mucous membrane): 2/8; TD50 at 35 h ([3]; po): 5.6 mg/kg; ED50 (adjuvant arthritis): 0.5 mg/kg; Inhibition rate (swelling of hind paws) (adjuvant arthritis; [5]): 62.1% |
| CC(C(=O)O)c1ccc(C[C@@H]2CCC[C@H]2O)c(Cl)c1 (relative stereo) [Example 40, 2-[3-chloro-4-(trans-2-hydroxycyclopentane-1-ylmethyl)phenyl] propionic acid] | 56.3 | – | 34.5 | – |
| CC(C(=O)O)c1ccc(C[C@H]2CCCC[C@@H]2O)c(F)c1 (relative stereo) [Example 31] | 54 | – | – | – |
| CC(C(=O)O)c1ccc(C[C@H]2CCC[C@H]2O)c(F)c1 (relative stereo) [Example 47] | 45.6 | – | – | – |
| CC(C(=O)O)c1ccc(C[C@@H]2CCC[C@H]2O)cc1 (relative stereo) [compound 6, 2[4-(trans-2-hydroxycyclopentane-1-ylmethyl)phenyl]propionic acid, reference compound] | 38.5 | – | 22.5 | – |
| CC(C(=O)O)c1ccc(CC2CCCCC2=O)cc1 (stereo not drawn) [compound 2, 2[4-(2-oxocyclohexane-1-ylmethyl)phenyl]propionic acid, reference compound] | 27.1 | 44.3 | – | – |
| COc1ccc2c(c1)c(CC(=O)O)c(C)n2C(=O)c1ccc(Cl)cc1 [compound 4, Indomethacin, reference compound] | – | – | – | Inhibition rate ([2]; 5.0 mg/kg): 76.3%; inhibition in vivo at 5 mg/kg ([1]; po, read-out: Inhibition rate (edema inhibition rate)): 51.3%; Inhibition rate (swelling of hind paws) (adjuvant arthritis; [5]): 58.7% |
| CC(C(=O)O)c1ccc(C[C@H]2CCC[C@@H]2O)c(F)c1 (relative stereo) [Example 46] | 60.5 | – | – | – |
| CC(C(=O)O)c1ccc(C[C@@H]2CCCC[C@H]2O)c(Cl)c1 (relative stereo) [Example 24, 2-[3-chloro-4-(trans-2-hydroxycyclohexane-1-ylmethyl)phenyl]propionic acid] | 47.1 | – | 33.4 | Inhibition rate (swelling of hind paws) (adjuvant arthritis; 0.1 mg/kg once a day for 7 days): 34.2%; Inhibition rate (swelling of hind paws) (adjuvant arthritis; 0.3 mg/kg once a day for 7 days): 49.9%; Inhibition rate (swelling of hind paws) (adjuvant arthritis; [5]): 65.9% |
| CC(C(=O)O)c1ccc(C[C@@H]2CCCC[C@H]2O)cc1 (relative stereo) [compound 5, 2[4-(trans-2-hydroxycyclohexane-1-ylmethyl)phenyl]propionic acid, reference compound] | 33.7 | – | – | Inhibition rate (swelling of hind paws) (adjuvant arthritis; 3.0 mg/kg once a day for 7 days): 42.7%; Inhibition rate (swelling of hind paws) (adjuvant arthritis; 10.0 mg/kg once a day for 7 days): 56.4% |
| CC(C(=O)O)c1ccc(CC2CCCC2=O)cc1 (stereo not drawn) [compound 1, Loxoprofen, reference compound] | 23.9 | 49.7 | – | ED50 [2]: 1.5 mg/kg; ED50 [1]: 1.5 mg/kg; Ulcer formation (incidence) (Gastric mucous membrane): 4/8; TD50 at 35 h ([3]; oral, fasted 18 hours, read-out: UD50 (50% gastric ulcer-inducing dose)): 4.7 mg/kg; ED50 (adjuvant arthritis): 8.1 mg/kg; Inhibition rate (swelling of hind paws) (adjuvant arthritis; [5]): 1.3% |
